Results reported in patent US11730720B2, “ALK5 inhibitors” (THERAVANCE BIOPHARMA R&D IP, LLC, priority 2018, dated 2023).

Legend:
[1] = molecular target: T1, recombinant human ALK5 (TGF-βR1) protein (Homo sapiens, UniProt P36897); assay: Biochemical ALK5 (TGF-βR1) assay to measure pKi (LANCE Ultra ULight kinase assay); conditions: apparent pKi, converted from pIC50 using the Cheng-Prusoff equation
T1 construct: purchased Life Technologies PR9075A
T1 sequence (P36897 34-503): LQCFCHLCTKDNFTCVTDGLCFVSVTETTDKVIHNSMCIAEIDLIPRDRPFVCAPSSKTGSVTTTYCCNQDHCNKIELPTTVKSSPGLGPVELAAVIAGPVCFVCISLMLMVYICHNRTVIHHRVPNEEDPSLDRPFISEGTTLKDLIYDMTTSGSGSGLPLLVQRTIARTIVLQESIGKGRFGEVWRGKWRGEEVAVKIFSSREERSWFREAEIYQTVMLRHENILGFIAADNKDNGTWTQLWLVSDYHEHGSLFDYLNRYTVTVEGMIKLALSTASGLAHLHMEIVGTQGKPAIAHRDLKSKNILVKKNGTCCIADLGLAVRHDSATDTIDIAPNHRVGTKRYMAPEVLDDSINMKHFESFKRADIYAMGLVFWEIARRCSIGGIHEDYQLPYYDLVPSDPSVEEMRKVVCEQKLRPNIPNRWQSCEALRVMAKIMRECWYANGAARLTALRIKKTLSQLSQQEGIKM
Procedure, shortened: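 TR-FRET kinase format: compound dose range 10 μM–25 pM equilibrated 60 min with human ALK5 and ULight-labelled topoisomerase 2α peptide in HEPES/MgCl2 buffer pH 7.5 with DTT. Reaction started with ATP (125 μM stock, 5× final), 60 min at 37° C, stopped with EDTA/Eu-anti-phospho antibody; pKi derived from pIC50 via Cheng-Prusoff.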

[2] = tested on: TGF-β-stimulated SMAD3 phosphorylation in BEAS-2B cells; assay: Cellular ALK5 potency assay, inhibition of TGF-β stimulated pSMAD3 formation in BEAS-2B cells; type: cell-based; conditions: Homo sapiens, inhibition of TGF-β (10 ng/mL) stimulated pSMAD3 formation, 1 hour compound incubation, read-out: BEAS2B pIC50 (converted)
Procedure, shortened: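 Phospho-SMAD3 was quantified by AlphaLISA in lysates of human lung epithelial BEAS-2B cells. Compound was added 1 h (37 °C, HEPES/BSA-supplemented HBSS) before a 30 min challenge with 10 ng/mL TGF-β. Values are pIC50 relative to stimulated cells without compound.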

Row | Compound | Ki [1] | IC50 [2]
1 | CN(C)C1CN(c2cnc3ccc(-c4c[nH]nc4-c4cc(Cl)ccc4F)nc3c2)C1 [Compound 1-31, 1-(6-(3-(5-chloro-2-fluorophenyl)-1H-pyrazol-4-yl)-1,5-naphthyridin-3-yl)-N,N-dimethylazetidin-3-amine] | 0.0398 to 0.316 nM | ≤ 20 nM
2 | NCCn1cc(-c2cnc3ccc(-c4c[nH]nc4-c4cc(Cl)ccc4F)nc3c2)cn1 [Compound 1-89, 2-[4-[6-[3-(5-chloro-2-fluoro-phenyl)-1H-pyrazol-4-yl]-1,5-naphthyridin-3-yl]pyrazol-1-yl]ethanamine] | ≤ 0.0316 nM | 25.1 to 158 nM
3 | CN(CCN1CCNCC1)c1cnc2ccc(-c3c[nH]nc3-c3cc(Cl)ccc3F)nc2c1 [Compound 1-53, 6-[3-(5-chloro-2-fluoro-phenyl)-1H-pyrazol-4-yl]-N-methyl-N-(2-piperazin-1-ylethyl)-1,5-naphthyridin-3-amine] | 0.0398 to 0.316 nM | 25.1 to 158 nM
4 | CN(C)C1CCN(c2cnc3ccc(-c4c[nH]nc4-c4cc(Cl)ccc4F)nc3c2)CC1 [Compound 1-45, 1-[6-[3-(5-chloro-2-fluoro-phenyl)-1H-pyrazol-4-yl]-1,5-naphthyridin-3-yl]-N,N-dimethyl-piperidin-4-amine] | 0.0398 to 0.316 nM | ≤ 20 nM
5 | NC1CCN(c2cnc3ccc(-c4c[nH]nc4-c4cc(Cl)ccc4F)nc3c2)C1 (stereo not drawn) [Compound 1-55, 1-[6-[3-(5-chloro-2-fluoro-phenyl)-1H-pyrazol-4-yl]-1,5-naphthyridin-3-yl]pyrrolidin-3-amine] | ≤ 0.0316 nM | ≤ 20 nM
6 | Fc1ccc(Cl)cc1-c1n[nH]cc1-c1ccc2ncc(-c3nnn4c3NCCC4)cc2n1 [Compound 1-118, 2-[3-(5-chloro-2-fluoro-phenyl)-1H-pyrazol-4-yl]-7-(4,5,6,7-tetrahydrotriazolo[1,5-a]pyrimidin-3-yl)-1,5-naphthyridine] | 0.0398 to 0.316 nM | ≤ 20 nM
7 | CNCCn1cc(-c2cnc3ccc(-c4c[nH]nc4-c4cc(Cl)ccc4F)nc3c2)cn1 [Compound 1-87, 2-(4-(6-(3-(5-chloro-2-fluorophenyl)-1H-pyrazol-4-yl)-1,5-naphthyridin-3-yl)-1H-pyrazol-1-yl)-N-methylethan-1-amine] | ≤ 0.0316 nM | ≤ 20 nM
8 | COC(=O)[C@H]1CN(c2cnc3ccc(-c4c[nH]nc4-c4cc(Cl)ccc4F)nc3c2)CCN1 [Compound 1-62, methyl (2R)-4-[6-[3-(5-chloro-2-fluoro-phenyl)-1H-pyrazol-4-yl]-1,5-naphthyridin-3-yl]piperazine-2-carboxylate] | 0.398 to 3.16 nM | 25.1 to 158 nM
9 | COCC1CN(c2cnc3ccc(-c4c[nH]nc4-c4cc(Cl)ccc4F)nc3c2)CCN1C (racemic) [Compound 1-80, 2-[3-(5-chloro-2-fluoro-phenyl)-1H-pyrazol-4-yl]-7-[rac-(3R)-3-(methoxymethyl)-4-methyl-piperazin-1-yl]-1,5-naphthyridine] | 0.398 to 3.16 nM | 25.1 to 158 nM
10 | Fc1ccc(Cl)cc1-c1n[nH]cc1-c1ccc2ncc(-c3nc4n(n3)CCNC4)cc2n1 [Compound 1-100, 2-(3-(5-chloro-2-fluorophenyl)-1H-pyrazol-4-yl)-7-(5,6,7,8-tetrahydro-[1,2,4]triazolo[1,5-a]pyrazin-2-yl)-1,5-naphthyridine] | 0.0398 to 0.316 nM | 25.1 to 158 nM
11 | CN1CC=C(c2cnc3ccc(-c4c[nH]nc4-c4cc(Cl)ccc4F)nc3c2)C1 [Compound 1-97, 2-[3-(5-chloro-2-fluoro-phenyl)-1H-pyrazol-4-yl]-7-(1-methyl-2,5-dihydropyrrol-3-yl)-1,5-naphthyridine] | ≤ 0.0316 nM | ≤ 20 nM
12 | NC1CCN(c2cnc3ccc(-c4c[nH]nc4-c4cc(Cl)ccc4F)nc3c2)CC1 [Compound 1-135, 1-[6-[3-(5-chloro-2-fluoro-phenyl)-1H-pyrazol-4-yl]-1,5-naphthyridin-3-yl]piperidin-4-amine] | 0.0398 to 0.316 nM | 25.1 to 158 nM
13 | COC(=O)c1coc(-c2cnc3ccc(-c4c[nH]nc4-c4cc(Cl)ccc4F)nc3c2)n1 [Compound 1-104, methyl 2-[6-[3-(5-chloro-2-fluoro-phenyl)-1H-pyrazol-4-yl]-1,5-naphthyridin-3-yl]oxazole-4-carboxylate] | 0.398 to 3.16 nM | 25.1 to 158 nM
14 | O=Cc1cnc2ccc(-c3c[nH]nc3-c3cc(Cl)ccc3F)nc2c1 [Compound 1-101, 6-[3-(5-chloro-2-fluoro-phenyl)-1H-pyrazol-4-yl]-1,5-naphthyridine-3-carbaldehyde] | 0.398 to 3.16 nM | ≤ 20 nM

Continued, in another order:

Row | Ki [1] | Compound | IC50 [2]
15 | 0.0398 to 0.316 nM | CN(C)C1CN(c2cnc3ccc(-c4c[nH]nc4-c4cc(Cl)c(F)cc4F)nc3c2)C1 [Compound 6-19, 1-[6-[3-(5-chloro-2,4-difluoro-phenyl)-1H-pyrazol-4-yl]-1,5-naphthyridin-3-yl]-N,N-dimethyl-azetidin-3-amine] | 25.1 to 158 nM
16 | 0.0398 to 0.316 nM | CNC1CN(c2cnc3ccc(-c4c[nH]nc4-c4cc(Cl)c(F)cc4F)nc3c2)C1 [Compound 6-31, 1-[6-[3-(5-chloro-2,4-difluoro-phenyl)-1H-pyrazol-4-yl]-1,5-naphthyridin-3-yl]-N-methyl-azetidin-3-amine] | ≤ 20 nM
17 | 0.398 to 3.16 nM | CNC(=O)[C@@H]1CN(c2cnc3ccc(-c4c[nH]nc4-c4cc(Cl)c(F)cc4F)nc3c2)CCN1 [Compound 6-26, (2S)-4-[6-[3-(5-chloro-2,4-difluoro-phenyl)-1H-pyrazol-4-yl]-1,5-naphthyridin-3-yl]-N-methyl-piperazine-2-carboxamide] | 25.1 to 158 nM
18 | 0.398 to 3.16 nM | Fc1cc(F)c(-c2n[nH]cc2-c2ccc3ncc(-c4nnn5c4NCCC5)cc3n2)cc1Cl [Compound 6-47, 2-[3-(5-chloro-2,4-difluoro-phenyl)-1H-pyrazol-4-yl]-7-(4,5,6,7-tetrahydrotriazolo[1,5-a]pyrimidin-3-yl)-1,5-naphthyridine] | 25.1 to 158 nM
19 | 0.398 to 3.16 nM | CC(C)N1CCN(c2cnc3ccc(-c4c[nH]nc4-c4ccc(F)c(F)c4)nc3c2)CC1 [Compound 8-10, 2-[3-(3,4-difluorophenyl)-1H-pyrazol-4-yl]-7-(4-isopropylpiperazin-1-yl)-1,5-naphthyridine] | 25.1 to 158 nM
20 | 0.0398 to 0.316 nM | Fc1ccc(Cl)cc1-c1nc2ccccn2c1-c1ccc2ncc(N3CCNCC3)cc2c1 [Compound 19-4, 6-(2-(5-chloro-2-fluorophenyl)imidazo[1,2-a]pyridin-3-yl)-3-(piperazin-1-yl)quinoline] | 200 to 1260 nM
21 | 0.398 to 3.16 nM | O=C(O)[C@H]1CN(c2cnc3ccc(-c4nc[nH]c4-c4cc(Cl)c(F)cc4F)nc3c2)CCN1 [Compound 7-3, (R)-4-(6-(5-(5-chloro-2,4-difluorophenyl)-1H-imidazol-4-yl)-1,5-naphthyridin-3-yl)piperazine-2-carboxylic acid] | 25.1 to 158 nM
22 | 0.398 to 3.16 nM | Fc1cc(F)c(-c2n[nH]cc2-c2ccc3ncc(-c4nnn5c4CNCC5)cc3n2)cc1Cl [Compound 6-57, 2-[3-(5-chloro-2,4-difluoro-phenyl)-1H-pyrazol-4-yl]-7-(4,5,6,7-tetrahydrotriazolo[1,5-a]pyrazin-3-yl)-1,5-naphthyridine] | 25.1 to 158 nM
23 | 0.398 to 3.16 nM | Fc1cc(F)c(-c2n[nH]cc2-c2ccc3ncc(-c4cnc5n4CCCN5)cc3n2)cc1Cl [Compound 6-60, 2-[3-(5-chloro-2,4-difluoro-phenyl)-1H-pyrazol-4-yl]-7-(5,6,7,8-tetrahydroimidazo[1,2-a]pyrimidin-3-yl)-1,5-naphthyridine] | 25.1 to 158 nM
24 | 0.0398 to 0.316 nM | Fc1cc(F)c(-c2n[nH]cc2-c2ccc3ncc(-c4cn5c(n4)CNCC5)cc3n2)cc1Cl [Compound 6-52, 2-[3-(5-chloro-2,4-difluoro-phenyl)-1H-pyrazol-4-yl]-7-(5,6,7,8-tetrahydroimidazo[1,2-a]pyrazin-2-yl)-1,5-naphthyridine] | 25.1 to 158 nM
25 | 0.398 to 3.16 nM | Fc1cc(F)c(-c2n[nH]cc2-c2ccc3ncc(N4CC5CNC5C4)cc3n2)cc1Cl (stereo not drawn) [Compound 6-33, 2-[3-(5-chloro-2,4-difluoro-phenyl)-1H-pyrazol-4-yl]-7-(3,6-diazabicyclo[3.2.0]heptan-3-yl)-1,5-naphthyridine] | 25.1 to 158 nM
26 | 0.398 to 3.16 nM | CC(C)N1CCN(CCNc2cnc3ccc(-c4c(-c5cc(Cl)ccc5F)nc5ccccn45)cc3c2)CC1 [Compound 19-6, 6-(2-(5-chloro-2-fluorophenyl)imidazo[1,2-a]pyridin-3-yl)-N-(2-(4-isopropylpiperazin-1-yl)ethyl)quinolin-3-amine] | 200 to 1260 nM
27 | 0.398 to 3.16 nM | C[C@@H]1CN(CCNc2cnc3ccc(-c4nc[nH]c4-c4cccc(Cl)c4)cc3c2)C[C@H](C)N1 [Compound 24-3, 6-[5-(3-chlorophenyl)-1H-imidazol-4-yl]-N-[2-[(3R,5S)-3,5-dimethylpiperazin-1-yl]ethyl]quinolin-3-amine] | 25.1 to 158 nM
